Values joined by “and” are separate entries in the source; they are usually repeats but may differ in a detail not shown here. Identical values can stand only once.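 In this assay, cells in 96-well plates receive the compound at five concentrations for 48 hours. Endpoints are linearly interpolated between the surrounding concentrations. Abbreviation: GI50, concentration required for 50% inhibition of growth. TGI marks complete inhibition of growth.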
Tests used:
Assay in all cases: NCI-60 cell line screen, 48 h
RXF 393 renal = tested on: RXF 393 renal
MOLT-4 leukemia = tested on: MOLT-4 leukemia
NCI-H23 lung = tested on: NCI-H23 lung
KM12 colon = tested on: KM12 colon
NCI-H226 lung = tested on: NCI-H226 lung
SF-539 CNS = tested on: SF-539 CNS
A498 renal = tested on: A498 renal
K-562 leukemia = tested on: K-562 leukemia
ACHN renal = tested on: ACHN renal
SF-268 CNS = tested on: SF-268 CNS

Row | SMILES | GI50 (RXF 393 renal) | TGI (RXF 393 renal) | GI50 (MOLT-4 leukemia) | TGI (MOLT-4 leukemia) | GI50 (NCI-H23 lung) | TGI (NCI-H23 lung) | GI50 (KM12 colon) | TGI (KM12 colon) | GI50 (NCI-H226 lung) | TGI (NCI-H226 lung) | GI50 (SF-539 CNS) | TGI (SF-539 CNS) | GI50 (A498 renal) | TGI (A498 renal) | GI50 (K-562 leukemia) | TGI (K-562 leukemia) | GI50 (ACHN renal) | TGI (ACHN renal) | GI50 (SF-268 CNS) | TGI (SF-268 CNS)
1 | Oc1ccc(Cl)cc1/C=N\NC(=S)N/N=C/c1cc(Cl)ccc1O | 2.03 µM | 6.83 µM | 2.23 µM | 7.62 µM | 4.61 µM | 67.7 µM | 2.68 µM | 44.7 µM | 2.34 µM | 14.1 µM | 2.8 µM | 90.8 µM | 2.36 µM | 11.5 µM | 2.63 µM | > 100 µM | 2.35 µM | > 100 µM | 1.72 µM | > 100 µM
2 | COc1cc(Cn2c(-c3ccccc3)cc3c2-c2oncc2CC3)cc(OC)c1 | 0.296 µM | > 100 µM | 0.427 µM | > 100 µM | 0.452 µM | > 100 µM | 0.313 µM | 9.76 µM | 0.93 µM | > 100 µM | 0.297 µM | > 49 µM | 0.153 µM | 0.75 µM | 0.201 µM | > 100 µM | 0.786 µM | > 100 µM | 0.876 µM | > 100 µM
3 | COC(=O)C(C(=O)C(N)=O)c1csc(-n2nc(-c3ccccc3)cc2-c2ccccc2)n1 (stereo not given) | – | > 31.6 µM | – | > 31.6 µM | – | > 100 µM | – | > 31.6 µM | – | > 31.6 µM | – | > 31.6 µM | – | > 31.6 µM | – | > 31.6 µM | – | > 31.6 µM | – | > 31.6 µM
4 | O=C1CCC(=O)c2sccc2N1 | – | > 100 µM | – | > 100 µM | – | > 100 µM | – | > 100 µM | – | > 100 µM | – | > 100 µM | – | > 100 µM | – | > 100 µM | – | > 100 µM | – | > 100 µM
5 | Cn1cc(-c2nc(N[C@@H]3CCCC[C@@H]3N)c(F)c3c2C(=O)NC3)cn1 | 1.99 µM and 2.47 µM | 10.5 µM and 12.5 µM | 4.74 µM and 6.87 µM | > 80.2 µM and 98.9 µM | 5.58 µM and 5.83 µM | 48.7 µM and > 63.7 µM | 0.458 µM and 0.452 µM | > 100 µM | 2.93 µM and 3.83 µM | 23.9 µM and 49.7 µM | 2.81 µM and 3.16 µM | 13.9 µM and 16.1 µM | 1.72 µM and 2.45 µM | 8.43 µM and 11.3 µM | 6.83 µM and 6.77 µM | > 100 µM | 3.08 µM and 4.65 µM | > 100 µM | 5.42 µM and 6.7 µM | > 100 µM
6 | O=C(/C=C/c1ccco1)c1ccc(Nc2nc(Nc3ccc(F)cc3)nc(Nc3ccc(F)cc3)n2)cc1 | 41.4 µM | > 100 µM | 11.9 µM | 48.8 µM | 16.4 µM | 37 µM | 13.3 µM | > 100 µM | 53.3 µM | > 100 µM | 24.8 µM | 63.5 µM | 7.28 µM | > 100 µM | 10.8 µM | 46 µM | > 100 µM | > 100 µM | 7.49 µM | 30.8 µM
7 | Cc1ccc(S(=O)(=O)NC(CO)C(=O)O)cc1 (stereo not given) | – | > 100 µM | – | > 100 µM | – | > 100 µM | – | > 100 µM | – | > 100 µM | – | > 100 µM | – | > 100 µM | – | > 100 µM | – | > 100 µM | – | > 100 µM
8 | CC(C)N1C(C)[C@@H](c2ccccc2)O[P@]1(=O)CC1=CCCCC1 (stereo not given in full) | – | > 100 µM | – | > 100 µM | – | > 100 µM | – | > 100 µM | – | > 100 µM | – | > 100 µM | – | > 100 µM | – | > 100 µM | – | > 100 µM | – | > 100 µM

Source: PubChem BioAssay (NCI)
